Laboratory results: US9018438B2, “Screening method for anticancer drugs” (Kyoto University, priority 2010, dated 2015)
Where a name gives a salt, the structure may show the parent alone. Read-outs that look alike come from different tables or passages of the source.

Columns and labels:
Reck gene promoter [1] = assay: SEAP assay in YM3 cells (Reck gene promoter-reporter system); assay type: cell-based, mouse; conditions: for Activity in Dox: in the presence of Dox (HRAS12V-off); for Induction (fold): relative SEAP activity at optimal conc., YM3 cells, regular medium (Ras-ON)
Procedure: A 4.1-kb upstream region of a mouse Reck gene (Gene ID: 53614, Chromosome 4—NC—000070.5 43884251-43888453) was inserted into a pSEAP2-Basic vector (Clontech) to give a pSEAP-RP4.1 plasmid. […] Biochem Biophys Res Commun 1999; 264: 668-675.). […] TF323-C3 cells can be distributed from one of the inventors Makoto Noda.
YM3 cells were seeded onto 96-well plates at 1×10^4 cells in 100 μl per well and incubation was performed for 5 hours to allow the cells to settle. A compound solution (500 μM, 1 μl) was added to the medium. The employed test compounds were those in the chemical library Prestwick Chemical Library (Prestwick Chemical, Illkirch, France), which is composed of 880 structurally diverse known bioactive compounds, dissolved in nano-pure grade dimethyl sulfoxide (DMSO; Wako). […] A vehicle (DMSO, 1 μl) alone as a negative control and hypothemycin (HPM, 1 mg/ml) as a positive control were added to two wells per plate. Each sample was tested on two different plates (duplicate samples).
After incubation for 48 hours, a portion (10 μl) of the culture supernatant was sampled, incubated at 65° C. (heat treatment) for 30 minutes, and then subjected to the SEAP assay using Great EscAPe™ SEAP Chemiluminescence Detection Kit (Takara Bio). The remaining medium and the cells were subjected to the cell-counting assay using SF reagent. That is, SF reagent (Nacalai) (10 μl per well) was added to the medium, the plates were incubated for 3 hours in a CO2 incubator, and the absorbance at 450 nm (A450) was measured to obtain relative cell numbers. For the SEAP activity data, “SEAP measured value/A450 value” was defined as “SEAP activity per cell”, and the value obtained by dividing “SEAP activity per cell” of each compound by “SEAP activity per cell” of the negative control was defined as “relative SEAP activity”. The mean “relative SEAP activity” of the duplicate samples and the standard error thereof were determined. For the cell number data, the value obtained by dividing the SF measured value of each compound by the SF measured value of the negative control was defined as “relative cell number”, and the mean value of the duplicate samples and the standard error thereof were determined. Samples with a large standard error were tested again. In the experiment, duplicate samples were prepared each in a regular liquid medium and in a liquid medium containing Dox (2 μg/ml), and four mean values (the relative cell number and the relative SEAP activity in the Ras-ON state and the relative cell number and the relative SEAP activity in the Ras-OFF state) were obtained (see FIG. 3).

pro-MMP-9 = assay: Gelatin zymography of RM72 culture supernatant, MMP-9; assay type: cell-based, human; conditions: RM72 cells; DSF 16 μM, DXR 210 nM, Gra 32 nM, Pyt 5 μM; 48 hours
Procedure: Gelatin zymography with the culture supernatant of RM72 cells treated with DSF, DXR, Gra, Pyt, pDTC, HPM, and DMSO (vehicle) was performed. Specifically, RM72 cells (2×10^4 cells per well) seeded onto 96-well plates were incubated for 24 hours, and the medium was replaced with a medium containing each of the above compounds (DSF: 16 μM, DXR: 210 nM, Gra: 32 nM, Pyt: 5 μM, HPM: 1 μg/ml, pDTC: 20 μM). After incubated for 48 hours, the medium was replaced with 100 μl of DMEM containing 0.1% FBS and incubated for additional 12 hours. The culture supernatant was harvested, cleared of a solid matter by centrifugation, and analyzed by gelatin zymography in accordance with the method described in literature (Takahashi C, Sheng Z, Horan. T P, Kitayama H, Maki M, Hitomi K, Kitaura Y, Takai S, Sasahara R M, Horimoto A, Ikawa Y, Ratzkin B J, Arakawa T, Noda M. Regulation of matrix metalloproteinase-9 and inhibition of tumor invasion by the membrane-anchored glycoprotein RECK. Proc Natl Acad Sci USA 1998; 95: 13221-13226). The band intensities were normalized against the cell number determined by the SF assay.

RM72 cells [2] = assay type: in vivo; conditions: for Lung metastasis Mean: relative lung metastasis; for Lung metastasis Mean / Tumor Mean: vehicle = 100; for Tumor Mean: relative tumor size; for anticancer activity / cancer metastasis suppressing activity: summary statement
Procedure: RM72 cells (3×10^6 cells) suspended in 0.1 ml of PBS were subcutaneously injected into the right posterior flank of Balb/c nude mice (6 weeks old, male, Charles River). […]. After 14-day treatment, the mice were anesthetized and their bioluminescence was recorded by the method described below. After the whole-body recording of the bioluminescence, the lung was resected, washed with PBS (−), and subjected to bioluminescence recording. The tumor size (length×width×height) was measured once a week. Statistical significance was assessed by Student's t-test.
Mice under anesthesia were intraperitoneally injected with 75 mg/kg of d-luciferin dissolved in PBS (−). Bioluminescence images were acquired with IVIS ImagingSystem (Xenogen) at 5 minutes after the injection (Wang S, El-Deiry W S. Requirement of p53 targets in chemosensitization of colonic carcinoma to death ligand therapy. Proc Natl Acad Sci USA 2003; 100: 15095-15100; Minn A J, Kang Y, Serganova I, Gupta G P, Giri D D, Doubrovin M, Ponomarev V, Gerald W L, Blasberg R, Massague J. Distinct organ-specific metastatic potential of individual breast cancer cells and primary tumors. J Clin Invest 2005; 115: 44-55). The photons emitted from the whole bodies or the isolated organs were collected for a period of 60 seconds and integrated. The images were analyzed using Living Image software (Xenogen).
The anti-tumorigenic and anti-metastatic activities of Pyt, Hr, Gra and Lyc were investigated with the same protocol as in Example 9. The experiment was conducted in two batches: Experiment 1 for three groups of a Pyt group, a Hr group and a vehicle group and Experiment 2 for three groups of a Gra group, a Lyc group and a vehicle group. The doses of the test compounds were set at two different quantities considered to be appropriate based on literature (see Tables 3 and 4).

endogenous RECK = assay: Endogenous RECK mRNA (RT-PCR) and protein (immunoblotting) expression in RM72 cells; assay type: cell-based, human; conditions: 48 hours, Lyc 1.3 μM, Hr 11 μM
Source text: Relative band intensities were obtained by normalization against HPRT1 for the mRNA and against GAPDH for the protein and subsequent division by the normalized value for the cells treated with the vehicle.

RM72 cells [3] = assay: IC30 concentration in RM72 cells; assay type: cell-based, human
Reck gene promoter [4] = assay: SEAP assay in YM3 cells (Reck gene promoter-reporter system); assay type: cell-based, mouse; conditions: determined by dose-response assays (0.0617, 0.185, 0.556, 1.67, 5.00 μM) using YM3 cells

Which “Activity in Dox” value (Reck gene promoter [1]) does the source give for `COc1cccc2c1C(=O)c1c(O)c3c(c(O)c1C2=O)C[C@@](O)(C(=O)CO)C[C@@H]3O[C@H]1C[C@H](N)[C@H](O)[C@H](C)O1` [Doxorubicin hydrochloride] here?
Its value is “+ (more than 1.9-fold)”.

What about the “Induction (fold)” value (Reck gene promoter [1]) of the same molecule?
The value was 8.55 fold.

What about the “pro-MMP-9 level in the culture supernatant” value (pro-MMP-9) of the same molecule?
The value was “reduced”.

Which anti-metastatic activity (RM72 cells [2]; both doses) does the source give for Gramicidin here?
Its anti-metastatic activity is “strong”.

And the anti-tumorigenic activity (RM72 cells [2]; both doses)?
Its anti-tumorigenic activity is “weak”.

And the “Lung metastasis Mean” value (RM72 cells [2]; 0.03 mg/kg/day)?
The value was 42.0.

What about the “Lung metastasis Mean” value (RM72 cells [2]; 0.1 mg/kg/day) of the same molecule?
Its value is 27.4.

And the “Tumor Mean” value (RM72 cells [2]; 0.03 mg/kg/day)?
The value was 89.3.

And the “Tumor Mean” value (RM72 cells [2]; 0.1 mg/kg/day)?
Its value is 83.1.

What about the anticancer activity (RM72 cells [2]) of the same molecule?
Its anticancer activity is “confirmed”.

And the “cancer metastasis suppressing activity” value (RM72 cells [2])?
Its value is “confirmed”.

What about the Optimal conc. (Reck gene promoter [1]) of the same molecule?
Its Optimal conc. is 5.00 µM.

And the “Activity in Dox” value (Reck gene promoter [1])?
Its value is “+ (more than 1.9-fold)”.

What about the “Induction (fold)” value (Reck gene promoter [1]) of the same molecule?
Its value is 7.30 fold.

What about the “pro-MMP-9 level in the culture supernatant” value (pro-MMP-9) of the same molecule?
Its value is “reduced”.

With `Cl.O[C@H]1[C@H]2c3cc4c(cc3CN3CCC(=C[C@@H]1O)[C@H]23)OCO4` [Lycorine hydrochloride] as the molecule, how does the anti-tumorigenic activity (RM72 cells [2]; both doses) read?
Its anti-tumorigenic activity is “strong”.

What about the anti-metastatic activity (RM72 cells [2]; high dose) of the same molecule?
The anti-metastatic activity was “strong”.

And the anti-metastatic activity (RM72 cells [2]; low dose)?
Its anti-metastatic activity is “weak”.

And the “Lung metastasis Mean” value (RM72 cells [2]; 2.5 mg/kg/day)?
Its value is 65.5.

What about the “Lung metastasis Mean” value (RM72 cells [2]; 7.5 mg/kg/day) of the same molecule?
The value was 17.7.

And the “Tumor Mean” value (RM72 cells [2]; 2.5 mg/kg/day)?
The value was 69.7.

And the “Tumor Mean” value (RM72 cells [2]; 7.5 mg/kg/day)?
The value was 70.9.

What about the anticancer activity (RM72 cells [2]) of the same molecule?
The anticancer activity was “confirmed”.

And the “cancer metastasis suppressing activity” value (RM72 cells [2])?
Its value is “confirmed”.

And the “Activity in Dox” value (Reck gene promoter [1])?
The value was “+ (more than 1.9-fold)”.

And the “Induction (fold)” value (Reck gene promoter [1])?
The value was 3.44 fold.

What about the “expression of RECK mRNA” value (endogenous RECK) of the same molecule?
Its value is “increased the expression”.

What about the “expression of RECK protein” value (endogenous RECK) of the same molecule?
The value was “reduced the expression”.

What about the IC30 (RM72 cells [3]) of the same molecule?
Its IC30 is 1.3 µM.

And the Optimal conc. (Reck gene promoter [4])?
Its Optimal conc. is 5.00 µM.

What does the source list for `COc1ccc2c(c1)[nH]c1c(C)nccc12.Cl` [Harmine hydrochloride]?
anti-metastatic activity (RM72 cells [2]; both doses): strong; anti-tumorigenic activity (RM72 cells [2]; both doses): strong; Lung metastasis Mean (RM72 cells [2]; 3 mg/kg/day): 22.0; Lung metastasis Mean (RM72 cells [2]; 10 mg/kg/day): 25.7; Tumor Mean (RM72 cells [2]; 3 mg/kg/day): 56.4; Tumor Mean (RM72 cells [2]; 10 mg/kg/day): 47.2; anticancer activity (RM72 cells [2]): confirmed; cancer metastasis suppressing activity (RM72 cells [2]): confirmed; Activity in Dox (Reck gene promoter [1]): ± (between 1.9 and 1.5-fold); Induction (fold) (Reck gene promoter [1]): 2.44 fold; expression of RECK mRNA (endogenous RECK): increased the expression; expression of RECK protein (endogenous RECK): increased the expression; IC30 (RM72 cells [3]): 11 µM
